Patent US20050049200A1, “LHRH-antagonists in the treatment of fertility disorders” (priority 1996, published 2005)
“Also recorded” adds a separate entry of the source. Where a SMILES comes first, the peptide text is derived from it. [ ]: non-standard residue; d: D form. dPhe(4-Cl) = N[C@H](Cc1ccc(Cl)cc1)C(=O)O; d2Nal = N[C@H](Cc1ccc2ccccc2c1)C(=O)O; dCit = NC(=O)NCCC[C@@H](N)C(=O)O; d3Pal = N[C@H](Cc1cccnc1)C(=O)O

Key:
[1] = tested on: patients undergoing COH for IVF/ICSI; test: Cetrorelix combined with clomifen citrate and gonadotrophins for hormonal stimulation (COH) for IVF/ICSI; format: in vivo; settings: for fertilization rate: ICSI
Procedure: Combination of the GnRH antagonist Cetrorelix, clomifen citrate(CC) and gonadotrophins for hormonal stimulation for IVF/ICSI. COH was started on day 2 after spontaneous menstrual bleeding using 100 mg CC per day for 5 or 7 days. The antagonist Cetrorelix (0.25 mg s.c.) was given starting on stimulation day 6 combined with either urinary hMG or recombinant FSH (3 ampoules/d) in a prospective randomized way. After two days of gonadotrophin injection, the dose was individualized. Human chorionic gonadotropin was given for ovulation induction, if at least 3 follicles were ≧17 mm in diameter. In total, 30 patients were included in the study. 15 were randomized in each group. Intra cytoplasmatic sperm injection (ICSI) was applied in each case.

[2] = tested on: patients undergoing COS/ART; test: Phase II clinical trial of Cetrorelix in controlled ovarian stimulation (COS/ART); format: in vivo
Procedure: The results of a phase II clinical trial are shown in Table I. A total of […] patients were treated. […] During multiple dosing, the mean days of Cetrorelix application is 6 days. 25 babies were born by the end of May 1996 (7 following multiple doses; 18 following single/dual doses). 238 patients were treated with Cetrorelix by subcutaneous injection of Cetrorelix […]-Lyophilisat. 134 patients were treated with multiple doses and 104 patients with single or dual doses. The multiple doses are 0.25 mg/day or higher. The single dose was 3 mg or higher. […]

[3] = tested on: premature LH surges; settings: short term treatment; cited from earlier work
[4] = tested on: pituitary / follicular growth; test: Animal experiments and clinical studies with Cetrorelix (unstimulated follicular growth, pituitary responsiveness); format: in vivo
From the text: These low dosage levels present new possibilities for manipulating the time of ovulation during a normal, not exogenous gonadotropin-stimulated cycle, without affecting the viability of the growing follicle. In case of inadequate follicular growth related to treatment with LHRH-antagonists, low dose and short term administration of gonadotrophin or other trophic compounds will compensate for these effects. Subsequently, by stopping the LHRH-antagonist treatment, it is possible to let the normal ovulation occur or to induce ovulation by exogenous manipulation, if necessary. Ovulation induction was induced by the administration of standard HCG or by administration of LHRH and/or LHRH agonistic analogs. These described treatment alternatives are a departure from existing protocols, since they are possible only if preceded by treatment for LH-surge-control with an LHRH-antagonist. In animal and clinical studies with Cetrorelix it was shown that the responsiveness of the pituitary to LHRH or agonistic analogs is preserved under these conditions of treatment. Without this treatment, the pituitary cannot respond after agonistic pretreatment for LH-surge control due to receptor down-regulation. In addition, the possible use of ovulation inducing agents other than HCG results in a-reduced incidence of ovarian hyperstimulation syndrome.

[5] = all phase II patients, both regimens
[6] = multiple dosing, 3-7/14 days, phase II dose finding
[7] = single dose (1 day), phase II dose finding

CC(=O)N[C@H](Cc1ccc2ccccc2c1)C(=O)N[C@H](Cc1ccc(Cl)cc1)C(=O)N[C@H](Cc1cccnc1)C(=O)N[C@@H](CO)C(=O)N[C@@H](Cc1ccc(O)cc1)C(=O)N[C@H](CCCNC(N)=O)C(=O)N[C@@H](CC(C)C)C(=O)N[C@@H](CCCNC(=N)N)C(=O)N1CCC[C@H]1C(=O)N[C@H](C)C(N)=O [Cetrorelix] (Ac-[d2Nal][dPhe(4-Cl)][d3Pal]SY[dCit]LRP[dA]-NH2)
ovarian hyperstimulation syndrome (OHSS) ([1]; both groups, 30 patients): No case
oocytes retrieved per cycle ([1]; hMG group): 7.7±3.8
fertilization rate ([1]; hMG group): 42%
oocytes retrieved per cycle ([1]; recombinant FSH group): 6.4±2.6
fertilization rate ([1]; recombinant FSH group): 53%
FSH secretion ([2]; FIG. 1): maintained at a natural level
individual estrogen development ([2]; FIG. 1): not affected
pregnancies obtained [2, 5]: 71
pregnancy rate [2, 5]: 30%
babies born by the end of May 1996 ([2]; both regimens together): 25
babies born by the end of May 1996 ([2]; following multiple doses): 7
babies born by the end of May 1996 ([2]; following single/dual doses): 18
pregnancy rate ([2]; multiple dose regimen): 28.4%
pregnancies ([2]; multiple dose regimen, of 134 patients): 38
premature LH surge ([2]; multiple doses of 0.25 mg or higher or single dose of 3 mg or higher, s.c.): No premature LH surge; also recorded: absolute prevention of any premature LH surge
min. effective dose (Dose/Day) [2, 6]: 0.25 min. effect, dose mg
no effect dose (Dose/Day) [2, 6]: 0.10 no effect. dose mg
min. effective dose [2, 7]: 3 min. effective dose mg
no effect dose [2, 7]: 2 no effect. Dose mg
duration of effect to prevent a premature LH surge ([2]; single dose regimen): up to 6.5 days
pregnancy rate ([2]; single/dual dosage regimen): 31.7%
pregnancies ([2]; single/dual dosage regimen, of 104 patients): 33
premature LH surges during stimulated cycles [3]: complete avoidance of premature LH surges
effect on normal, unstimulated follicular growth ([4]; multiple or single injections, extremely low dosage levels): arrest of the normal, unstimulated follicular growth
responsiveness of the pituitary to LHRH or agonistic analogs ([4]; under treatment for LH-surge control): preserved
